Laboratory results taken from US20100249071A1, “Modulators of S1P and Methods of Making And Using” (Exelixis, Inc., priority 2009, published 2010).
pEC50: −log10 of the molar value. Read-outs that look alike come from different tables or passages of the source. One block for each molecule: values may come before it.

Columns and labels:
S1P3 = target: T1, S1P3 (Homo sapiens, UniProt Q99500); experiment: S1P3 Tango β-arrestin recruitment assay in HEK293 cells (Assay 5); type: cell-based
T1 construct: host or cells: HEK293 (transient transfection)
T1 sequence (P32121 whole entry): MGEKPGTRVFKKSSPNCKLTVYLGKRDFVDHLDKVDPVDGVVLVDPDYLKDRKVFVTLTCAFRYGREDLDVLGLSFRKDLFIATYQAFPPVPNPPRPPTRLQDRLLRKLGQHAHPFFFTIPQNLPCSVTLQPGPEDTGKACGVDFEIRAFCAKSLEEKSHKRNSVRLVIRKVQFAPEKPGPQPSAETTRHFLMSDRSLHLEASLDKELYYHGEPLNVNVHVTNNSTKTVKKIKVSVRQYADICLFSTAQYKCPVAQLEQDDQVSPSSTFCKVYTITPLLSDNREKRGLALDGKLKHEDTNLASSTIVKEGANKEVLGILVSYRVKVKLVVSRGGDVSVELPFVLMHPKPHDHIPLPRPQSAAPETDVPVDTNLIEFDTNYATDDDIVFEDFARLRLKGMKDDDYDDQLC
T1 sequence (Q99500 whole entry): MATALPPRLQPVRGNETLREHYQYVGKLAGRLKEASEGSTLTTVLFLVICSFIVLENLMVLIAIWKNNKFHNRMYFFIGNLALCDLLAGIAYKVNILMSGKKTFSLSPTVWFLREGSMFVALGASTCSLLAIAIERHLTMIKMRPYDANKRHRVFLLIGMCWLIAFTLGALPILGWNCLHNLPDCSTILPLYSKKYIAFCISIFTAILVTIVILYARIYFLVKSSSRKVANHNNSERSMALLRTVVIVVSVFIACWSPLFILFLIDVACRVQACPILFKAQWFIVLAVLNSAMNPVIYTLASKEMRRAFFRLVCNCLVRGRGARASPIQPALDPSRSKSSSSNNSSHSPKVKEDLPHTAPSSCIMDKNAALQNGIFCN
Source text: (§1) For the Tango™ β-arrestin recruitment assay, the cytoplasmic C-terminus of S1P1 was tethered to the tTA transcriptional activator with a linker that contains a cleavage site for the N1a protease from tobacco etch virus (TEV protease). The C-terminus of the human β-arrestin2 protein was fused to TEV protease. Binding of an agonist recruits the βl -arrestin-TEV fusion protein to the receptor resulting in cleavage of the linker and released of tTA to enter the nucleus and subsequently activated a tTA-dependent luciferase reporter gene.
Assay 2a: Frozen HEK293 cells transiently transfected with receptor cDNAs for S1P1 (Invitrogen) are thawed and suspended in 10 mL of Pro293a-CDM culture medium (Invitrogen) supplemented with 4 mM L-Glutamine (Invitrogen), 1× Pen/Strep (100 units/mL penicillin and 100 μg/mL streptomycin, Invitrogen) and 0.1% fatty acid free BSA (Sigma-Aldrich). Cells are added to the wells of a 384-well white opaque bottom assay plate (PerkinElmer) at 3,000-6,000 cells per well and the plate is incubated for approximately 4 h in a 37° C. incubator. Test compounds are tested at maximum concentrations of 10 μM for the agonist assays. Compounds are diluted in DMSO (10 concentration points, 3-fold each) and added to the assay plate at a 1% final DMSO concentration. For each compound, there are duplicate assay plates and each assay plate has duplicate wells per concentration point. The plate is incubated at 37° C. for 30 min. The efficacy control is 5 μM S1P (Avanti). Following agonist addition, the assay plates are incubated in a 37° C. incubator for 16-18 h. Luciferase assay reagent is added and luminescence measured in an EnVision plate reader (PerkinElmer). To determine agonist activity, percent activity is calculated as [(test compound−background)/(positive control−background)*100], where background is the luminescence of the DMSO alone control and the positive control is the luminescence from cells incubated with the efficacy control 5 μM S1P. The percent activities are plotted against compound concentration to determine EC50 using XLFit (IDBS).
This assay was conducted using the procedures described in Assay 2a, replacing S1P1 with S1P3.

[1] = target: T2, hS1PR5 (hEdg8) membrane protein (Homo sapiens, UniProt Q9H228); experiment: hS1P5R GTPγS binding assay (Assay 4); type: biochemical
T2 construct: expressed in transfected cells; host or cells: CHO
T2 sequence (Q9H228 whole entry): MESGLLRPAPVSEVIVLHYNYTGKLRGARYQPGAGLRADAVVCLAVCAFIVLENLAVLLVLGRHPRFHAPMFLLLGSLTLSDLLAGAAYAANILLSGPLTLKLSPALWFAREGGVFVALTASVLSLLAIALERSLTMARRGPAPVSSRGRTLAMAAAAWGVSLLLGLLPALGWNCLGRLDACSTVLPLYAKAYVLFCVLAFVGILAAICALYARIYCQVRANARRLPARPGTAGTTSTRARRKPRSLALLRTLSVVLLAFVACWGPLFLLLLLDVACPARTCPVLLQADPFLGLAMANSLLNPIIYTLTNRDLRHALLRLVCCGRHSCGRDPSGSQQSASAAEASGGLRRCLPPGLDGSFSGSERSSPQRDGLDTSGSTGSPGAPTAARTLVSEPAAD
Description: The hS1PR5 GTPγS binding assay was carried out at room temperature in 96-well non-binding surface assay plates. The reaction in each well contained 5 μg hS1PR5 (hEdg8) membrane protein from CHO cells expressing hS1PR5, 30 μM GDP, 0.1 nM [^35S]GTPγS, 0.25% fatty acid free BSA, and serially-diluted Compound of the Invention in 200 μL assay buffer (25 mM Tris-HCl PH 7.9, 100 mM NaCl, 3 mM MgCl2, and 0.2 mM EGTA). After one hour of incubation, 0.9 mg of WGA (Wheat Germ Agglutinin) SPA beads in 50 μL of assay buffer was added to each well. The SPA beads were spun down after an additional one hour incubation. The radioactivity of the bound GTPγS was counted by reading the assay plate using a MicroBeta.

S1P1 = target: T3, S1P1 (Homo sapiens, UniProt P21453); experiment: Tango β-arrestin recruitment assay in U2OS cells (Assay 2b); type: cell-based
T3 construct: host or cells: U2OS
T3 sequence (P32121 whole entry): as the sequence (P32121 whole entry) above
T3 sequence (P21453 whole entry): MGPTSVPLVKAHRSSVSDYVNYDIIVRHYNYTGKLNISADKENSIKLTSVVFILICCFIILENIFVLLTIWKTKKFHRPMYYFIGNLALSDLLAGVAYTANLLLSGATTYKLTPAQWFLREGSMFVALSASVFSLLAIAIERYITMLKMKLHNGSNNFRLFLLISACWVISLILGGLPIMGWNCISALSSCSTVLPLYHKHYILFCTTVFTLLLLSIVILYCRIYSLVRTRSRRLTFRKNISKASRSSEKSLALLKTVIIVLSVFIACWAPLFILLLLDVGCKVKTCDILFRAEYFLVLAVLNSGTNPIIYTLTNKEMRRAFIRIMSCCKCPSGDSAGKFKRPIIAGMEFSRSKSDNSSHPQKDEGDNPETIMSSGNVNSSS
Source text: as §1
Assay 2b: Alternatively, U2OS cells expressing the reporter gene and S1P1 (Invitrogen) were added to the wells of a 384-well white opaque bottom assay plate (PerkinElmer) at […]. The cells were serum starved for 48 h in Freestyle medium (Invitrogen). Test compounds were tested at maximum concentrations of 1 μM for the agonist assay. Compounds were diluted in DMSO (10 concentration points, 3-fold each) and added to the assay plate at a 1% final DMSO concentration. The efficacy control was 1 μM S1P (Avanti). For each compound, there were duplicate assay plates and each assay plate had duplicate wells per concentration point. The plate was incubated overnight at 37° C. The GeneBLAzer β-lactamase assay reagent (Invitrogen) was added and the plates were incubated for an additional 2 h at room temperature. Fluorescence was measured using an EnVision plate reader (PerkinElmer, Waltham, Mass.) at an excitation wavelength of 409 nm and emission wavelengths of 460 nm and 530 nm. The emission intensity at each wavelength was background subtracted against wells containing medium only and the F460 nm/F530 nm ratio determined for each concentration of the test compounds. Percent activity was calculated as [(test compound ratio−DMSO ratio)/(positive control ratio−DMSO ratio)*100], where the positive control and DMSO ratios are from cells incubated with the efficacy control 1 μM S1P and 1% DMSO, respectively. The percent activities were plotted against compound concentration to determine EC50 using XLFit (IDBS).

[2] = target: T4, hS1P1R (hEdg1) membrane protein (Homo sapiens, UniProt P21453); experiment: hS1P1R GTPγS binding assay (Assay 3a); type: biochemical
T4 construct: purchased Lonza
T4 sequence (P21453 whole entry): as above
Description: Assay 3a: The hS1P1R GTPγS binding assay was carried out at room temperature in 96 well non-binding surface assay plates. The reaction in each well contained 4 μg hS1P1R (hEdg1) membrane protein (Lonza), 30 μM GDP, 0.1 nM [^35S]GTPγS, 0.25% fatty acid free BSA, and serially diluted hS1P1R agonist compound in 200 μL assay buffer (25 mM Tris-HCl PH 7.9, 100 mM NaCl, 3 mM MgCl2, and 0.2 mM EGTA). After one hour of incubation, 0.9 mg of WGA (Wheat Germ Agglutinin) SPA beads in 50 μL of assay buffer was added to each well. The SPA beads were spun down after an additional one hour incubation. The radioactivity of the bound GTPγS was counted by reading the assay plate using a MicroBeta.

[3] = * = rEC50 measured rather than EC50, read-out: Assay 2b rEC50 (relative EC50, cells marked *)

Molecule: CC(C)Nc1ccc(-c2nnc(-c3cc(F)c(OC[C@@H](N)COP(=O)(O)O)cc3Cl)s2)cn1 [Entry 47, (2R)-2-amino-3-{[5-chloro-2-fluoro-4-(5-{6-[(1-methylethyl)amino]pyridin-3-yl}-1,3,4-thiadiazol-2-yl)phenyl]oxy}propyl dihydrogen phosphate]
pEC50 (S1P3; read-out: Assay 5 EC50): ≥ 6.60 | pEC50 [1]: ≥ 8.00 | pEC50 (S1P1; read-out: Assay 2b EC50): ≥ 8.00 | pEC50 [2]: ≥ 8.00

Molecule: (1R,2R)-2-amino-3-{[5-chloro-2-fluoro- 4-(5-{6-[(1-methylethyl)amino]pyridin- 3-yl}-1,3,4-thiadiazol-2-yl)phenyl]oxy}- 1-methylpropyl dihydrogen phosphate [Entry 102]
pEC50 (S1P3; read-out: Assay 5 EC50): ≥ 6.60 | pEC50 [1]: ≥ 8.00 | pEC50 (S1P1; [3]): ≥ 8.00 | pEC50 [2]: ≥ 8.00

Molecule: CC(C)N(C)c1cc(-c2nnc(-c3cc(F)c(OCC(N)CO)cc3Cl)s2)ccn1 (stereo not shown) [Entry 41, 2-amino-3-{[5-chloro-2-fluoro-4-(5-{2-[methyl(1-methylethyl)amino]pyridin-4-yl}-1,3,4-thiadiazol-2-yl)phenyl]oxy}propan-1-ol]
pEC50 (S1P3; read-out: Assay 5 EC50): < 5.00 | pEC50 [1]: < 5.00 | pEC50 (S1P1; read-out: Assay 2b EC50): ≥ 8.00 | pEC50 [2]: 5.55 to 6.60

Molecule: CC(C)Oc1ccc(-c2nnc(-c3cc(F)c(OC[C@H](N)COP(=O)(O)O)cc3Cl)s2)cc1Cl [Entry 13, (2S)-2-amino-3-{[5-chloro-4-(5-{3-chloro-4-[(1-methylethyl)oxy]phenyl}-1,3,4-thiadiazol-2-yl)-2-fluorophenyl]oxy}propyl dihydrogen phosphate]
pEC50 (S1P3; read-out: Assay 5 EC50): ≥ 6.60 | pEC50 [1]: ≥ 8.00 | pEC50 (S1P1; read-out: Assay 2b EC50): ≥ 8.00 | pEC50 [2]: ≥ 8.00

Molecule: CC(C)Oc1ccc(-c2nnc(-c3cc(F)c(OC[C@@H](N)CO)cc3Cl)s2)cc1Br [Entry 11, (2S)-2-amino-3-{[4-(5-{3-bromo-4-[(1-methylethyl)oxy]phenyl}-1,3,4-thiadiazol-2-yl)-5-chloro-2-fluorophenyl]oxy}propan-1-ol]
pEC50 (S1P3; read-out: Assay 5 EC50): ≥ 6.60 | pEC50 [1]: 7.30 to 8.00 | pEC50 (S1P1; read-out: Assay 2b EC50): ≥ 8.00 | pEC50 [2]: ≥ 8.00

Molecule: CC(C)Oc1ccc(-c2nnc(-c3cc(F)c(OC[C@H](N)CO)cc3Cl)s2)cn1 [Entry 35, (2R)-2-amino-3-{[5-chloro-2-fluoro-4-(5-{6-[(1-methylethyl)oxy]pyridin-3-yl}-1,3,4-thiadiazol-2-yl)phenyl]oxy}propan-1-ol]
pEC50 (S1P3; read-out: Assay 5 EC50): < 5.00 | pEC50 [1]: 5.55 to 6.60 | pEC50 (S1P1; read-out: Assay 2b EC50): 6.60 to 7.30 | pEC50 [2]: 5.55 to 6.60

Molecule: CC(C)N(C)c1cc(-c2nnc(-c3cc(F)c(OC[C@@H](N)CO)cc3Cl)s2)cc(Cl)n1 [Entry 31, (2S)-2-amino-3-{[5-chloro-4-(5-{2-chloro-6-[methyl(1-methylethyl)amino]pyridin-4-yl}-1,3,4-thiadiazol-2-yl)-2-fluorophenyl]oxy}propan-1-ol]
pEC50 (S1P3; read-out: Assay 5 EC50): ≥ 6.60 | pEC50 (S1P1; read-out: Assay 2b EC50): ≥ 8.00 | pEC50 [2]: 6.60 to 7.30

Continued, values first:

pEC50 (S1P3; read-out: Assay 5 EC50): < 5.00 | pEC50 [1]: 7.30 to 8.00 | pEC50 (S1P1; read-out: Assay 2b EC50): ≥ 8.00 | pEC50 [2]: ≥ 8.00
Molecule: CC(C)Nc1ccc(-c2nnc(-c3cc(F)c(OC[C@H](N)[C@@H](C)OP(=O)(O)O)cc3Cl)s2)cn1 [Entry 85, (1R,2S)-2-amino-3-{[5-chloro-2-fluoro-4-(5-{6-[(1-methylethyl)amino]pyridin-3-yl}-1,3,4-thiadiazol-2-yl)phenyl]oxy}-1-methylpropyl dihydrogen phosphate]

pEC50 (S1P3; read-out: Assay 5 EC50): ≥ 6.60 | pEC50 [1]: ≥ 8.00 | pEC50 (S1P1; read-out: Assay 2b EC50): ≥ 8.00 | pEC50 [2]: ≥ 8.00
Molecule: CC(C)Oc1ccc(-c2nnc(-c3cc(F)c(OC[C@@H](N)[C@@H](C)OP(=O)(O)O)cc3Cl)s2)cc1Cl [Entry 70, (1R,2R)-2-amino-3-{[5-chloro-4-(5-{3-chloro-4-[(1-methylethyl)oxy]phenyl}-1,3,4-thiadiazol-2-yl)-2-fluorophenyl]oxy}-1-methylpropyl dihydrogen phosphate]

pEC50 (S1P3; read-out: Assay 5 EC50): < 5.00 | pEC50 [1]: 5.55 to 6.60 | pEC50 (S1P1; read-out: Assay 2b EC50): ≥ 8.00 | pEC50 [2]: 5.55 to 6.60
Molecule: CC(C)Nc1ccc(-c2nnc(-c3cc(F)c(OC[C@@H](N)[C@H](C)O)cc3Cl)s2)cn1 [Entry 59, (2S,3R)-3-amino-4-{[5-chloro-2-fluoro-4-(5-{6-[(1-methylethyl)amino]pyridin-3-yl}-1,3,4-thiadiazol-2-yl)phenyl]oxy}butan-2-ol]

pEC50 (S1P3; * = rEC50 measured rather than EC50, read-out: Assay 5 rEC50 (relative EC50, cells marked *)): < 6.60 | pEC50 [1]: 7.30 to 8.00 | pEC50 (S1P1; read-out: Assay 2b EC50): ≥ 8.00 | pEC50 [2]: ≥ 8.00
Molecule: CC(C)Oc1ccc(-c2nnc(-c3cc(F)c(OC[C@@H](N)[C@@H](C)O)cc3Cl)s2)cc1C#N [Entry 86, 5-[5-(4-{[(2R,3R)-2-amino-3-hydroxybutyl]oxy}-2-chloro-5-fluorophenyl)-1,3,4-thiadiazol-2-yl]-2-[(1-methylethyl)oxy]benzonitrile]

pEC50 (S1P3; read-out: Assay 5 EC50): < 6.60 | pEC50 [1]: 6.60 to 7.30 | pEC50 (S1P1; read-out: Assay 2b EC50): 6.60 to 7.30
Molecule: Cc1cc(NC(C)C)cc(-c2nnc(-c3cc(F)c(OC[C@H](N)[C@H](C)O)cc3Cl)s2)n1 [Entry 106, (2S,3S)-3-amino-4-(5-chloro-2-fluoro-4-{5-[6-methyl-4-(propan-2-ylamino)pyridin-2-yl]-1,3,4-thiadiazol-2-yl}phenoxy)butan-2-ol]

pEC50 (S1P3; read-out: Assay 5 EC50): < 5.00 | pEC50 (S1P1; read-out: Assay 2b EC50): 5.55 to 6.60 | pEC50 [2]: 5.55 to 6.60
Molecule: N[C@H](CO)COc1cc(Cl)c(-c2nnc(-c3cc(Cl)cc(Cl)c3)s2)cc1F [Entry 92, (2R)-2-amino-3-({5-chloro-4-[5-(3,5-dichlorophenyl)-1,3,4-thiadiazol-2-yl]-2-fluorophenyl}oxy)propan-1-ol]

pEC50 (S1P3; read-out: Assay 5 EC50): < 6.60 | pEC50 [1]: ≥ 8.00 | pEC50 (S1P1; [3]): ≥ 8.00
Molecule: Cc1cc(-c2nnc(-c3cc(F)c(OC[C@H](N)[C@H](C)OP(=O)(O)O)cc3Cl)s2)ccc1OC(C)C [Entry 104, (1S,2S)-2-amino-3-{[5-chloro-2-fluoro-4-(5-{3-methyl-4-[(1-methylethyl)oxy]phenyl}-1,3,4-thiadiazol-2-yl)phenyl]oxy}-1-methylpropyl dihydrogen phosphate]

pEC50 (S1P3; read-out: Assay 5 EC50): < 6.60 | pEC50 [1]: 6.60 to 7.30 | pEC50 (S1P1; read-out: Assay 2b EC50): 6.60 to 7.30
Molecule: Cc1nc(-c2nnc(-c3cc(F)c(OC[C@H](N)[C@H](C)O)cc3Cl)s2)ccc1NC(C)C [Entry 105, (2S,3S)-3-amino-4-(5-chloro-2-fluoro-4-{5-[6-methyl-5-(propan-2-ylamino)pyridin-2-yl]-1,3,4-thiadiazol-2-yl}phenoxy)butan-2-ol]
